Peptide text beside a SMILES is read from it.
Legend:
[1] = test system: TSHR-immunized diseased mice; conditions: previous study (8); cited from earlier work
[2] = test system: immunologically naïve mice; assay: Studies in immunologically naive mice: 6 monthly IV administrations; format: in vivo, BALB/c mice; conditions: 1 mg/kg bw IV, 6 monthly administrations
Procedure: BALB/c mice were adapted for at least one week to start experiments at the age of 12 weeks. Animals were kept as described before. This study was approved by the local animal welfare authority and Ethics committee at the Regierung von Oberbayern (Government of Upper Bavaria) in Munich, Germany (no. 55.2-1-54-2532.0-32-15), and carried out in accordance to the European Commission guidelines.
Peptides (1 mg/kg body weight) or NaCl vehicle control were given by IV injection into a tail vein of these naïve mice (n=6 per group), and then continued at 4-weekly intervals for 6 months, as described before for the therapeutic study in immunized mice. Serum samples were taken at identical intervals.

Compound	Improvement of disease parameters [1]	Tolerability / clinical findings [2]
SPPCECHQEEDFRVTCKDIQRIPS (cyclic; Amino acid sequence derived from human thyrotropin-TSH receptor (TSHR)) [peptide 829]	small, non-significant trends to improve disease parameters	
CC(C)[C@@H]1NC(=O)[C@H](CCCNC(=N)N)NC(=O)[C@H](Cc2ccccc2)NC(=O)[C@H](CC(=O)O)NC(=O)[C@H](CCC(=O)O)NC(=O)[C@H](CCC(=O)O)NC(=O)[C@H](CCC(N)=O)NC(=O)[C@H](Cc2c[nH]cn2)NC(=O)[C@@H](N)CSSC[C@@H](C(=O)O)NC(=O)[C@H]([C@@H](C)O)NC1=O [peptide 19, CHQEEDFRVTC] (HELM PEPTIDE1{C.H.Q.E.E.D.F.R.V.T.C}$PEPTIDE1,PEPTIDE1,1:R3-11:R3$$$V2.0)		no pathological clinical findings were observed
CC(C)C[C@@H]1NC(=O)[C@H](Cc2ccc(O)cc2)NC(=O)[C@H](C(C)C)NC(=O)[C@H](C)NC(=O)[C@H](CC(=O)O)NC(=O)[C@H](CC(C)C)NC(=O)[C@H](CCCCN)NC(=O)[C@H]([C@@H](C)O)NC(=O)CNC(=O)[C@H](CCCCN)NC(=O)[C@H](CC(N)=O)NC(=O)[C@H](CCCCN)NC(=O)[C@H](CC(N)=O)NC1=O [peptide 836 13mer, TKLDAVYLNKNKG] (HELM PEPTIDE1{A.V.Y.L.N.K.N.K.G.T.K.L.D}$PEPTIDE1,PEPTIDE1,1:R1-13:R2$$$V2.0)		no pathological clinical findings were observed

Source: patent publication US12060409B2, “Short cyclic peptides for the treatment of Graves' disease” (priority 2018, dated 2024)
